Measurements: patent publication US11286258B2, “Nature-inspired anticancer and antibacterial motifs and pharmaceutical composition thereof” (University of Sharjah, priority 2020, dated 2022)
Values after ≈ are worked out from the molar mass of the structure shown.

Assays:
[1] = system: MRSA-2 (clinical isolate); experiment: MIC broth microdilution, MRSA-2; type: cell-based, Staphylococcus aureus; details: Staphylococcus aureus, MRSA; overnight incubation, Mueller-Hinton broth; read-out: MIC MRSA-2 (clinical isolate)
Method: (§1) Antibacterial activity: The compounds were tested for the minimum inhibitory concentrations (MIC), which is the lowest concentration of a chemical required to inhibit visible microbial growth following overnight incubation. MIC values were determined using broth microdilution method according to the Clinical and Laboratory Standards Institute guidelines (CLSI, 2015, M07-A10). Mueller-Hinton broth was used as a culture medium in all the experiments. Exponentially growing bacterial cells were prepared in Mueller-Hinton broth at a concentration of approximately 5×10^5 CFU/mL. Two-fold serial dilutions of the test compound (8 concentrations ranged between 100-0.78 μg/mL) were tested. […] In each experiment, solvent (DMSO) was used as a negative control, un-treated control (composing of bacteria in Mueller-Hinton broth) was used as a growth control, blank (culture media alone) was used as sterility control. The 96-well microplate with the test compounds was incubated overnight at 37° C. Turbidity in wells indicated bacterial growth.
(§2) The compounds were tested on six MDR Gram-positive bacteria including three clinical isolates of methicillin-resistant Staphylococcus aureus (MRSA-1, MRSA-2 and MRSA-3) and three reference MRSA strains (ATCC33591, ATCC33592 and ATCC700699). They were also tested on three MDR Gram-negative bacteria including New Delhi metallo-beta-lactamase (NDM-1) positive, carbapenem-resistant E. coli (ATCC BAA2469), extended-spectrum beta-lactamase (ESBL) producing, colistin-resistant E. coli (CDC-AR-0346) and carbapenem-resistant Acinetobacter baumannii (ATCC BAA1605), in addition to two non-MDR bacteria from the same species, namely E. coli (ATCC 25922) Acinetobacter baumannii (ATCC 19606).

[2] = system: MCF-7; experiment: MTT cell viability, MCF-7; type: cell-based; details: Homo sapiens, MCF7; breast cancer; 48 h of drug treatment; average of three experiments
Description: (§3) Cell culture: In this study five different cancer cell lines were used, human lung carcinoma (A549), human breast adenoma (MCF-7), Cervical carcinoma (Hela), hepatocellular carcinoma (Hep3B), and colorectal adenocarcinoma (HCT-116). These cells were obtained from the European Collection of Cell Cultures (ECACC, UK). Hep3B cells were maintained in Dulbecco's Modified Eagle Medium (DMEM: Sigma-Aldrich), and the four other cell lines were maintained in Roswell Park Memorial Institute medium (RPMI, Sigma-Aldrich, St. Louis, Mo., USA), which was supplemented with 10% fetal bovine serum (FBS, Sigma-Aldrich) and 1% penicillin/streptomycin (Sigma-Aldrich). Cells were incubated all the time at 37° C. in a humidified atmosphere of 5% CO2. Cell viability studies: Cell viability was assessed using the MTT assay as described before. In brief, all cancer cell lines were seeded at a density of 4×10^4/well in 96 well flat-bottom plates. After 24 h from seeding, cells were treated with the synthesized compounds and left for an incubation period of 48 h. Upon reaching the indicated time point, the media was removed and replaced with 200 μL fresh media containing 0.5 mg/mL of MTT tetrazolium dye (Sigma-Aldrich). Cells were then incubated with MTT solution for 2 h at 37° C. The resultant formazan crystals were dissolved in 200 μl/well of DMSO and absorbance was measured at 570 nm using a microplate reader (Thermo Scientific).

[3] = system: MRSA-ATCC700699 (VISA); experiment: MIC broth microdilution, MRSA ATCC700699 (VISA); type: cell-based, Staphylococcus aureus; details: for MIC: Staphylococcus aureus, strain intermediately resistant to vancomycin, overnight incubation, read-out: MIC MRSA-ATCC700699 (VISA)
Method: as §1, §2

[4] = system: MDA-MB-231; experiment: MTT cell viability, MDA-MB-231; type: cell-based; details: Homo sapiens, breast cancer, 48 h of drug treatment, average of three experiments
Method: (§4) Cell viability studies: Cell viability was assessed using the MTT assay as described before. In brief, all cancer cell lines were seeded at a density of 4×10^4/well in 96 well flat-bottom plates. After 24 h from seeding, cells were treated with the synthesized compounds and left for an incubation period of 48 h. Upon reaching the indicated time point, the media was removed and replaced with 200 μL fresh media containing 0.5 mg/mL of MTT tetrazolium dye (Sigma-Aldrich). Cells were then incubated with MTT solution for 2 h at 37° C. The resultant formazan crystals were dissolved in 200 μl/well of DMSO and absorbance was measured at 570 nm using a microplate reader (Thermo Scientific).

[5] = system: A549; experiment: MTT cell viability, A549; type: cell-based; details: Homo sapiens, lung cancer, 48 h of drug treatment, average of three experiments
Description: as §3

[6] = system: MRSA-ATCC33591; experiment: MIC broth microdilution, MRSA ATCC33591; type: cell-based, Staphylococcus aureus; details: Staphylococcus aureus; overnight incubation, Mueller-Hinton broth; read-out: MIC MRSA-ATCC33591
Method: as §1, §2

[7] = system: MRSA-1 (clinical isolate); experiment: MIC broth microdilution, MRSA-1; type: cell-based, Staphylococcus aureus; details: Staphylococcus aureus, MRSA; overnight incubation, Mueller-Hinton broth; read-out: MIC MRSA-1 (clinical isolate)
Method: as §1, §2

[8] = system: MRSA-ATCC33592; experiment: MIC broth microdilution, MRSA ATCC33592; type: cell-based, Staphylococcus aureus; details: Staphylococcus aureus; overnight incubation, Mueller-Hinton broth; read-out: MIC MRSA-ATCC33592
Method: as §1, §2

[9] = system: HELA; experiment: MTT cell viability, HELA; type: cell-based; details: Homo sapiens, cervical cancer, 48 h of drug treatment, average of three experiments
Description: as §3

[10] = system: HEP3B; experiment: MTT cell viability, HEP3B; type: cell-based; details: Homo sapiens, liver cancer, 48 h of drug treatment, average of three experiments
Description: as §3

[11] = system: normal epithelial cells (HMEC); experiment: Cell viability, normal epithelial cells; type: cell-based; details: Homo sapiens, 48 h of drug treatment, average of three experiments
Method: as §4

[12] = system: Hela cells; experiment: Western blot, autophagy- and iron metabolism-related proteins, Hela; type: cell-based, human
Method: Western Blotting (autophagy- and iron metabolism-related proteins): Cells were grown in DMEM supplemented with 10% FBS and 1×PEST (Penicillin and streptomycin antibiotics) at 37° C. in incubator having humidified atmosphere with 5% CO2. The media were removed and cells were washed twice with 1× cold PBS. Cells lysis was performed with RIPA lysis buffer containing (150 mM sodium chloride, 1.0% NP-40, 0.1% SDS, 50 mM Tris pH 8.0, 0.5% sodium deoxycholate supplemented with protease inhibitors cocktail). Cells were kept on icebox during the lysis process. Cold lysis buffer was added to each well directly and then cells were scraped and collected in 1.5 ml Eppendorf tube. Cell lysis was kept on icebox for 20 minutes and then centrifuged at 4° C. for 10 minutes. The supernatant was collected and the pellet was discarded. After, protein quantification, samples were boiled in 5× loading buffer at 95° C. for 5 minutes. After completion of the gel running and transfer process, the membrane was stained with ponceau solution. After that, the membrane was washed with 1×TBST and then blocked in 5% non-fat dry milk for 1 hr at room temperature. The membrane was washed 3 times with 1×TBST and then incubated with indicated primary antibodies at 4° C. overnight. Primary antibodies were removed; the membrane was washed 3 times with 1×TBST and then incubated with secondary antibodies for 2 h at room temperature. Secondary antibodies were diluted in 5% non-fat dry milk in 1× TB ST. After removal of the secondary antibody, the membrane was washed 3 times with 1×TBST. The membrane was incubated in ECL solution and the signal was developed using Gel Doc system from Biorad.

[13] = system: SKBR3; experiment: MTT cell viability, SKBR3; type: cell-based; details: Homo sapiens, SK-BR-3; breast cancer; 48 h of drug treatment; average of three experiments
Method: as §4

[14] = system: AGS; experiment: MTT cell viability, AGS; type: cell-based; details: Homo sapiens, stomach cancer, 48 h of drug treatment, average of three experiments
Method: as §4

[15] = system: MRSA-3 (clinical isolate); experiment: MIC broth microdilution, MRSA-3; type: cell-based, Staphylococcus aureus; details: Staphylococcus aureus, MRSA; overnight incubation, Mueller-Hinton broth; read-out: MIC MRSA-3 (clinical isolate)
Method: as §1, §2

[16] = system: MDA-MB-468; experiment: MTT cell viability, MDA-MB-468; type: cell-based; details: Homo sapiens, breast cancer, 48 h of drug treatment, average of three experiments
Method: as §4

[17] = system: HCT-116; experiment: MTT cell viability, HCT-116; type: cell-based; details: Homo sapiens, colon cancer, 48 h of drug treatment, average of three experiments
Description: as §3

[18] = system: JIMT1; experiment: MTT cell viability, JIMT1; type: cell-based; details: Homo sapiens, JIMT-1; breast cancer; 48 h of drug treatment; average of three experiments
Method: as §4

[19] = system: SKOV3; experiment: MTT cell viability, SKOV3; type: cell-based; details: Homo sapiens, SK-OV-3; 48 h of drug treatment; average of three experiments
Method: as §4

[20] = system: 6 MRSA strains; experiment: MIC, panel of 6 MRSA strains; type: cell-based; details: Staphylococcus aureus, across the panel of tested Gram-positive strains, read-out: MIC against all the 6 MRSA strains
Method: as §1, §2

[21] = system: Acinetobacter baumannii ATCC 19606; experiment: MIC broth microdilution, A. baumannii ATCC 19606; type: cell-based; details: Acinetobacter baumannii, ATCC19606; not MDR; overnight incubation
Method: as §1, §2

[22] = system: E. coli CDC-AR-0346 (ESBL, colistin resistant); experiment: MIC broth microdilution, E. coli CDC-AR-0346; type: cell-based, Escherichia coli
Method: as §1, §2

[23] = system: Acinetobacter baumannii ATCC BAA1605 (carbapenem-resistant); experiment: MIC broth microdilution, A. baumannii ATCC BAA1605; type: cell-based
Method: as §1, §2

[24] = system: E. coli ATCC BAA2469 (NDM-1 carbapenem-resistant); experiment: MIC broth microdilution, E. coli ATCC BAA2469; type: cell-based, Escherichia coli; details: overnight incubation
Method: as §1, §2

[25] = system: E. coli ATCC25922; experiment: MIC broth microdilution, E. coli ATCC25922; type: cell-based, Escherichia coli; details: Escherichia coli, ATCC25922; not MDR; overnight incubation
Method: as §1, §2

| MIC [1] [µg/mL] | IC50 [2] [µM] | MIC [3] [µg/mL] | IC50 [5] [µM] | MIC [6] [µg/mL] | MIC [7] [µg/mL] | MIC [8] [µg/mL] | IC50 [9] [µM] | IC50 [10] [µM] | MIC [15] [µg/mL] | IC50 [17] [µM] | SMILES | also measured |
| --- | --- | --- | --- | --- | --- | --- | --- | --- | --- | --- | --- | --- |
| 3.12 (≈ 7.31 µM) | 3.09 ± 0.04 | 3.12 (≈ 7.31 µM) | 5.22 ± 0.03 | 3.12 (≈ 7.31 µM) | 3.12 (≈ 7.31 µM) | 3.12 (≈ 7.31 µM) | 3.14 ± 0.04 | 2.32 ± 0.16 | 3.12 (≈ 7.31 µM) | 2.49 ± 0.02 | O=[N+]([O-])c1ccc(N/N=C2\C=C[C@@]3(CC2)CC[C@@H]2NCCc4c2n3c2ccccc42)cc1 [Compound 1d] | IC50 [4]: 4.22 ± 0.1 µM; IC50 [11]: 42.04 ± 0.08 µM; Expression and metabolism of autophagy marker LC3B1/II [12]: upregulate; Expression of DNA damage marker pH2AX [12]: induce; IC50 [13]: 3.93 ± 0.16 µM; IC50 [14]: 5.37 ± 0.17 µM; IC50 [16]: 3.06 ± 0.17 µM; IC50 [18]: 4 ± 0.1 µM; IC50 [19]: 6.52 ± 0.2 µM |
| 1.56 (≈ 3.33 µM) | 5.34 ± 1.8 | 1.56 (≈ 3.33 µM) | 7.44 ± 0.04 | 1.56 (≈ 3.33 µM) | 1.56 (≈ 3.33 µM) | 1.56 (≈ 3.33 µM) | 4.625 ± 0.04 | 3.597 ± 0.03 | 1.56 (≈ 3.33 µM) | 3.02 ± 1.2 | Fc1ccc2c3c4n(c2c1)[C@@]1(C=C/C(=N\Nc2ccc(C(F)(F)F)cc2)CC1)CC[C@@H]4NCC3 [Compound 1g] | MIC times less than the MIC of vancomycin ([3]; VISA strain ATCC 700699, vancomycin 8 μg/mL): ~5 times; MIC [20]: 1.56 µg/mL (≈ 3.33 µM); MIC [21]: 6.25 µg/mL (≈ 13.3 µM); MIC fold higher than that of colistin ([22]; E. coli CDC-AR-0346, colistin 6.25 μg/mL): 2 fold; MIC ([22]; Escherichia coli, MDR, overnight incubation): 12.5 µg/mL (≈ 26.7 µM); MIC fold below that of meropenem ([23]; Acinetobacter baumannii ATCC BAA1605, meropenem 12.5 μg/mL): 2 fold; MIC ([23]; Acinetobacter baumannii, ATCCBAA1605, MDR, overnight incubation): 6.25 µg/mL (≈ 13.3 µM); MIC ([24]; Escherichia coli, ATCCBAA2469, MDR): 6.25 to 12.5 µg/mL (≈ 13.3 to 26.7 µM); MIC E. coli ATCC BAA2469 (NDM-1 carbapenem-resistant) ([24]; MDR): 6.25 µg/mL (≈ 13.3 µM); MIC [25]: 6.25 µg/mL (≈ 13.3 µM) |
